The values below come from ChEMBL document CHEMBL1149131, “QSAR study of anticonvulsant negative allosteric modulators of the AMPA receptor” (J Med Chem, 2004).

Molecules are shown by their SMILES.

Test [1] has as its target T1, Glutamate receptor ionotropic, AMPA (Mus musculus) (UniProt P23819+P23818+Q9Z2W8+Q9Z2W9). Description: In vivo anticonvulsant activity was measured as median effective dose required to prevent tonic phase of seizure in DBA/2 mice. The test is classed as functional, organism-based.
Test [2] deals with T1, Glutamate receptor ionotropic, AMPA (Mus musculus). Description: In vivo anticonvulsant activity was measured as median effective dose required to prevent clonic phase of seizure in DBA/2 mice. It counts as functional, organism-based.

T1 sequence (P23818 whole entry, looked up): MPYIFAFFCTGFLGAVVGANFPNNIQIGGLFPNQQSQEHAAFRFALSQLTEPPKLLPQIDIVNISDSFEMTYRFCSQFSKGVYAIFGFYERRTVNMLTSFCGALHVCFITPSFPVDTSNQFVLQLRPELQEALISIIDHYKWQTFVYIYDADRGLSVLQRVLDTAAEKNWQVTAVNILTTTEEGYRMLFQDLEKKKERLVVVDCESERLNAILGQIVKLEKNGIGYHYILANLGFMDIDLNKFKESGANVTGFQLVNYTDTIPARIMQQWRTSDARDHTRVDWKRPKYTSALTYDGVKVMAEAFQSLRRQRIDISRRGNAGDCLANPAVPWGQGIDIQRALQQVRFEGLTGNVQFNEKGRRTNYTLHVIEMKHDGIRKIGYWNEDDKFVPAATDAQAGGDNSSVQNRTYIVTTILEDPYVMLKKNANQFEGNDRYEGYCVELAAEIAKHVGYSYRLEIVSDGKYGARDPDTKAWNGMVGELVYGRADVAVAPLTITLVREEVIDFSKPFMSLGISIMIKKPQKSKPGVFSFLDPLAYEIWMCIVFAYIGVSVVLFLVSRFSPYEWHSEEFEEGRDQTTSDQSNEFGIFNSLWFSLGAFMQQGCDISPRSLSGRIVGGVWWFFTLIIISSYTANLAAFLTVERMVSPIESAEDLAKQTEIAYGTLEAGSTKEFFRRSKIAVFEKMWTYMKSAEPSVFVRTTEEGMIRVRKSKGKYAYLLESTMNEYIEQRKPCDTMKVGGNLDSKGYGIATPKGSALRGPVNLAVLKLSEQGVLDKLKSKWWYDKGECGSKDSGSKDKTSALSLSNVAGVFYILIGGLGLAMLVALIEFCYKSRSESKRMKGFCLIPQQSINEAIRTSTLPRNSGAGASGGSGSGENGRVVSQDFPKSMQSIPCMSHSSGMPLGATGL
T1 sequence (P23819 whole entry, looked up): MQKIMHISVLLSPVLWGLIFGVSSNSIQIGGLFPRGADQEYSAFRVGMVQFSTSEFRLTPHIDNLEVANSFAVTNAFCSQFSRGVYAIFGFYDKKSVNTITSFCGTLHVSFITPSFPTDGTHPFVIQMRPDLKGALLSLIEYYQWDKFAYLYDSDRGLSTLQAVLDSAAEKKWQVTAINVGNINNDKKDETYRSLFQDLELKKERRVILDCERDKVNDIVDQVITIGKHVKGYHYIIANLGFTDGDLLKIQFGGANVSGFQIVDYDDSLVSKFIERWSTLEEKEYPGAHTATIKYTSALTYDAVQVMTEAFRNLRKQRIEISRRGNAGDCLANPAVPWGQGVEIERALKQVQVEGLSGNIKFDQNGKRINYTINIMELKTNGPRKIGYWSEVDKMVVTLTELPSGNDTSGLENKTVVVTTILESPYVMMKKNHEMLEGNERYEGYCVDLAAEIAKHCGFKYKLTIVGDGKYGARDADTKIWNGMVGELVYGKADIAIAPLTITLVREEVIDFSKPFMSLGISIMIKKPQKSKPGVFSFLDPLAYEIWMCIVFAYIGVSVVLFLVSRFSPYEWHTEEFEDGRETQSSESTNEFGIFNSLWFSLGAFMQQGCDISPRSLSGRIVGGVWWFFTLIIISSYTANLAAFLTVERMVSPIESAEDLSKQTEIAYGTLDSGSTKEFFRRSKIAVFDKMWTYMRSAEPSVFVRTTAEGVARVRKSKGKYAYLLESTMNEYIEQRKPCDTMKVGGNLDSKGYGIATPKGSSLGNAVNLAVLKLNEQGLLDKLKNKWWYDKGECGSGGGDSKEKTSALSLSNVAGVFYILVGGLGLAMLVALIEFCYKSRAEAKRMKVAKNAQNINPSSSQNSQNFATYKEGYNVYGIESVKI
T1 sequence (Q9Z2W8 whole entry, looked up): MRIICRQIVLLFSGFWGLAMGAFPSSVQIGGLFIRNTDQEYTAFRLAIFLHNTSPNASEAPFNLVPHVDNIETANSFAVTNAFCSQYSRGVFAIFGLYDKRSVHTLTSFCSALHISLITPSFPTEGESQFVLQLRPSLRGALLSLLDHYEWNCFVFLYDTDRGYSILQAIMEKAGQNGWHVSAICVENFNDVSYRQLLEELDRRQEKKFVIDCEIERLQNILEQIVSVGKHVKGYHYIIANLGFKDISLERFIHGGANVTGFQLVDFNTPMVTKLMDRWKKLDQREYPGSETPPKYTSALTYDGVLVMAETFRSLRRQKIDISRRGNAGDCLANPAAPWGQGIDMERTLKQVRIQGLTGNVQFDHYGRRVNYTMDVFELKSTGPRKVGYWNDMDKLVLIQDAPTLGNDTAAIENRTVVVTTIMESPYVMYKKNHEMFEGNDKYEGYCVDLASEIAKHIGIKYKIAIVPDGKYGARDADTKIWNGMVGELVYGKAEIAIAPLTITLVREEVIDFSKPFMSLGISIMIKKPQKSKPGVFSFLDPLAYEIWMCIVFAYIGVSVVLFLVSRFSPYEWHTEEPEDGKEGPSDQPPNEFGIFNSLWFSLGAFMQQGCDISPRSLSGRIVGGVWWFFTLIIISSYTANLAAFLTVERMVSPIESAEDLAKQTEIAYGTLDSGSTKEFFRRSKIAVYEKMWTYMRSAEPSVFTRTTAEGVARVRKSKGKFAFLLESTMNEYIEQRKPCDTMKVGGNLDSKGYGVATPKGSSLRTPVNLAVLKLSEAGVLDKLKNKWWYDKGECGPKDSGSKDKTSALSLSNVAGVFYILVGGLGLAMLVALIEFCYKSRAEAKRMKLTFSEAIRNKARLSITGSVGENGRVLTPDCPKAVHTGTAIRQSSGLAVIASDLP
T1 sequence (Q9Z2W9 whole entry, looked up): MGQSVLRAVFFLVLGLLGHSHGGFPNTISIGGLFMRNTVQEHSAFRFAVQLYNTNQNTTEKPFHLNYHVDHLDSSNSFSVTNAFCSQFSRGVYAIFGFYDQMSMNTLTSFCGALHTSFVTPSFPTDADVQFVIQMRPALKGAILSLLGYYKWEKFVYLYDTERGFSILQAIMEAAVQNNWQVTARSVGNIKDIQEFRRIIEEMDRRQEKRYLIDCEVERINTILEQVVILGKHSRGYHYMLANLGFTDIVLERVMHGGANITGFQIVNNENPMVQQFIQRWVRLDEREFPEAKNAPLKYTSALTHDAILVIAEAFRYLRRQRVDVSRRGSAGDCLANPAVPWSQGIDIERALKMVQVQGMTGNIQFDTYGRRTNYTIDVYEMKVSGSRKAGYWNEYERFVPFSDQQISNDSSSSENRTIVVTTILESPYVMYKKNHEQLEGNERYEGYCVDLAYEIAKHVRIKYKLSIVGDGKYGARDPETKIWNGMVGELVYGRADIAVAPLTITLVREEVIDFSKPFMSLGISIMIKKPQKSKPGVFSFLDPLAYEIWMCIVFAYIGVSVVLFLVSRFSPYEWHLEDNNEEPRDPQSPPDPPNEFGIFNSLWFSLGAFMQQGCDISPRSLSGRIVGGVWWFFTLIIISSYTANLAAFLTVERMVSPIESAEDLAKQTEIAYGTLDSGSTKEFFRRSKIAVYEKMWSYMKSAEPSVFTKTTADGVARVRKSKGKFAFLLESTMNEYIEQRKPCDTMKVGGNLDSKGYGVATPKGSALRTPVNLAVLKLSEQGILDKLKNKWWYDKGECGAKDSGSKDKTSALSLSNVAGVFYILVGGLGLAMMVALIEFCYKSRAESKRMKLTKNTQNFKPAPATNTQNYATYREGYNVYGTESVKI

Turning to `COc1cc2c(cc1OC)C(c1cccc([N+](=O)[O-])c1)N(C(C)=O)CC2` (configuration not stated), the 50% effective dose (ED50) in test [1] stood at 12.7 µmol/kg; in test [2], 37.2 µmol/kg.

For `COc1cc2c(cc1OC)C(c1ccc(Cl)cc1)=NN(C)C(=O)C2`, the ED50 is 38.6 µmol/kg in test [1] and 41.2 µmol/kg in test [2].

Consider `COc1cc2c(cc1OC)C(c1ccc(F)cc1)=Nn1c(O)nnc1C2`, for which the 50% effective dose (ED50) in test [1] worked out at 21.8 µmol/kg; in test [2], 32.1 µmol/kg.

As for `COc1cc2c(cc1OC)C(c1ccc(N(C(C)=O)C(C)=O)cc1)=NN(C(C)=O)C(=O)C2`, the ED50 in test [1] came out at 43.9 µmol/kg; in test [2], 56.8 µmol/kg.

Take `COc1cc2c(cc1OC)C(c1ccc(Cl)cc1)=NNC(=O)C2`: the 50% effective dose (ED50) in test [1] was found to be 75.3 µmol/kg; in test [2] it was 102 µmol/kg.

Regarding `SC1=NN=C(c2ccccc2)c2cc3c(cc2C1)OCO3`, the ED50 in test [1] turned out to be 18.8 µmol/kg; in test [2], 23.8 µmol/kg.

Take `COc1cc2c(cc1OC)C(c1ccc(Br)cc1)=NNC(=O)C2`: the ED50 stood at 82.5 µmol/kg in test [1] and 110 µmol/kg in test [2].

Regarding `COc1cc2c(cc1OC)C(c1ccc(N)cc1)=Nn1cnnc1C2`, the 50% effective dose (ED50) came to 48.3 µmol/kg in test [1] and 57.3 µmol/kg in test [2].

With `COc1cc2c(cc1OC)C(c1ccc([N+](=O)[O-])cc1)=Nn1c(C)nnc1C2`, the results for the ED50 in test [1] and in test [2] were 59.3 µmol/kg and 66.7 µmol/kg, respectively.

With `O=C1Cc2cc3c(cc2C(c2ccc(F)cc2)=NN1)OCO3`, the median effective dose (ED50) in test [1] is 63.8 µmol/kg; in test [2] it was 89.8 µmol/kg.

Consider `COc1cc2c(cc1OC)C(c1ccccc1)=Nn1c(O)nnc1C2`, for which the ED50 in test [1] amounted to 27.5 µmol/kg; in test [2], 44.6 µmol/kg.

Take `COc1cc2c(cc1OC)C(c1ccccc1)=NN(C)C(=S)C2`: the ED50 in test [1] was 24.7 µmol/kg; in test [2], 30.6 µmol/kg.

As to `COc1cc2c(cc1OC)C(c1ccc(N)cc1)=NN(C)C(=O)C2`, the 50% effective dose (ED50) in test [1] amounted to 43.7 µmol/kg; in test [2], 50.2 µmol/kg.

As to `COc1ccc2c(c1)CC(=O)NN1C(c3ccccc3)=NOC21c1ccccc1` (configuration not stated), the 50% effective dose (ED50) in test [1] came out at 100 µmol/kg; in test [2] it was 119 µmol/kg.

Regarding `Nc1cccc(-c2nnc(O)c3cc4c(cc23)OCO4)c1`, the ED50 in test [1] amounted to 15.7 µmol/kg; in test [2], 23.3 µmol/kg.

`CCCNC(=O)n1nc(-c2ccc(N)cc2)c2cc3c(cc2c1=O)OCO3`: the figures for the 50% effective dose (ED50) in test [1] and in test [2] were 6.82 µmol/kg and 15.8 µmol/kg, respectively.

Take `COc1cc2c(cc1OC)C(c1ccc(Br)cc1)=NN=C(S)C2`: the 50% effective dose (ED50) in test [1] was determined as 33.3 µmol/kg; in test [2], 52.1 µmol/kg.

Regarding `COc1cc2c(cc1OC)C(c1cccc(N)c1)=Nn1c(O)nnc1C2`, the ED50 in test [1] amounted to 13.1 µmol/kg; in test [2], 20.1 µmol/kg.

Take `COc1cc2c(O)nnc(-c3ccc(NC(C)=O)cc3)c2cc1OC`: the ED50 in test [1] was found to be 48.8 µmol/kg; in test [2] it was 62 µmol/kg.

Turning to `COc1cc2c(cc1OC)C(c1ccc(N)cc1)=NN=C(S)C2`, the ED50 in test [1] was found to be 3.3 µmol/kg; in test [2], 6.3 µmol/kg.

On to `COc1ccc2c(c1)CC(=O)N(C)N=C2c1ccccc1`, for which the median effective dose (ED50) is 99.1 µmol/kg in test [1] and 117 µmol/kg in test [2].

On to `COc1cc2c(cc1OC)C(c1ccccc1)=NN(C)C(=O)C2`, for which the median effective dose (ED50) was determined as 26.7 µmol/kg in test [1] and 37.8 µmol/kg in test [2].

`COc1cc2c(cc1OC)C(c1ccc(N)cc1)=NNC(=O)C2`: the median effective dose (ED50) came out at 12.6 µmol/kg in test [1] and 15 µmol/kg in test [2].

Consider `COc1cc2c(cc1OC)C(c1ccc(N)cc1)=Nn1c(C)nnc1C2`, for which the ED50 in test [1] is 44.7 µmol/kg; in test [2], 59.9 µmol/kg.

In the case of `COc1cc2c(O)nnc(-c3ccc(N)cc3)c2cc1OC`, the median effective dose (ED50) in test [1] amounted to 52 µmol/kg; in test [2], 60.5 µmol/kg.

Take `COc1cc2c(O)nnc(-c3cccc(N)c3)c2cc1OC`: the ED50 in test [1] was 59.9 µmol/kg; in test [2], 68.3 µmol/kg.

As for `Oc1nnc(-c2ccccc2)c2cc3c(cc12)OCO3`, the figures for the ED50 in test [1] and in test [2] were 31.3 µmol/kg and 36.7 µmol/kg, respectively.

As for `CN1N=C(c2ccccc2)c2cc3c(cc2CC1=O)OCO3`, the median effective dose (ED50) is 70.4 µmol/kg in test [1] and 82.5 µmol/kg in test [2].

For the compound `COc1cc2c(-c3cccc([N+](=O)[O-])c3)nn(C)c(=O)c2cc1OC`, the values for the median effective dose (ED50) in test [1] and in test [2] were 80.3 µmol/kg and 110 µmol/kg, respectively.

Turning to `Nc1ccc(C2=NNC(=O)Cc3cc4c(cc32)OCO4)cc1`, the ED50 in test [1] was 10.9 µmol/kg; in test [2] it was 15.4 µmol/kg.

For `COc1cc2c(cc1OC)C(c1ccccc1)=NN(C(C)=O)C(=O)C2`, the 50% effective dose (ED50) amounted to 72.1 µmol/kg in test [1] and 101 µmol/kg in test [2].

In the case of `COc1cc2c(cc1OC)C(c1cccc(N)c1)=NNC(=O)C2`, the results for the ED50 in test [1] and in test [2] were 18.3 µmol/kg and 19.3 µmol/kg, respectively.

`COc1cc2c(cc1OC)C(c1ccc([N+](=O)[O-])cc1)=Nn1c(O)nnc1C2`: the ED50 in test [1] stood at 58.3 µmol/kg; in test [2], 74.1 µmol/kg.

For `CNC(=O)n1nc(-c2ccc(N)cc2)c2cc3c(cc2c1=O)OCO3`, the figures for the ED50 in test [1] and in test [2] were 16.8 µmol/kg and 23.4 µmol/kg, respectively.

Regarding `Nc1ccc(-c2nnc(O)c3cc4c(cc23)OCO4)cc1`, the ED50 in test [1] was determined as 7.56 µmol/kg; in test [2], 21.2 µmol/kg.

`COc1cc2c(cc1OC)C(c1ccc(Br)cc1)=NN(C)C(=S)C2`: the ED50 in test [1] came to 60.4 µmol/kg; in test [2], 105 µmol/kg.

Consider `COc1cc2c(cc1OC)C(c1ccccc1)=NNC(=O)C2`, for which the values for the ED50 in test [1] and in test [2] were 31.8 µmol/kg and 33.9 µmol/kg, respectively.

Regarding `COc1cc2c(cc1OC)C(c1ccc(Cl)cc1)=NN=C(S)C2`, the median effective dose (ED50) was found to be 55 µmol/kg in test [1] and 82.4 µmol/kg in test [2].

Take `COc1cc2c(cc1OC)C(c1cccc(N)c1)=NN=C(S)C2`: the results for the 50% effective dose (ED50) in test [1] and in test [2] were 9.1 µmol/kg and 18.8 µmol/kg, respectively.

Consider `O=C1Cc2cc3c(cc2C(c2ccccc2)=NN1)OCO3`, for which the ED50 in test [1] was found to be 40.6 µmol/kg; in test [2], 43.3 µmol/kg.

As for `COc1cc2c(cc1OC)C(c1ccc([N+](=O)[O-])cc1)=NN(C)C(=S)C2`, the values for the ED50 in test [1] and in test [2] were 81.5 µmol/kg and 103 µmol/kg, respectively.

On to `O=C1Cc2cc3c(cc2C(c2ccc(O)cc2)=NN1)OCO3`, for which the values for the ED50 in test [1] and in test [2] were 49.6 µmol/kg and 52.3 µmol/kg, respectively.

Consider `Nc1cccc(C2=NNC(=O)Cc3cc4c(cc32)OCO4)c1`, for which the median effective dose (ED50) in test [1] turned out to be 12.7 µmol/kg; in test [2] it was 18 µmol/kg.

`CC1=NN=C(c2ccc(N)cc2)c2cc3c(cc2C1)OCO3`: the ED50 came to 25.3 µmol/kg in test [1] and 35.8 µmol/kg in test [2].

With `COc1cc2c(cc1OC)C(c1ccc([N+](=O)[O-])cc1)=NN=C(S)C2`, the median effective dose (ED50) in test [1] was determined as 69.8 µmol/kg; in test [2], 93.4 µmol/kg.

Regarding `COc1cc2c(-c3cccc(N)c3)nn(C)c(=O)c2cc1OC`, the median effective dose (ED50) in test [1] stood at 55.2 µmol/kg; in test [2] it was 63.7 µmol/kg.

As for `COc1cc2c(cc1OC)C(c1ccc(Br)cc1)NCC2` (configuration not stated), the ED50 stood at 12.5 µmol/kg in test [1] and 30.6 µmol/kg in test [2].

For `COc1cc2c(cc1OC)C(c1ccc(Br)cc1)=NN(C)C(=O)C2`, the figures for the ED50 in test [1] and in test [2] were 38 µmol/kg and 63 µmol/kg, respectively.

On to `COc1cc2c(cc1OC)C(c1ccc(Cl)cc1)NCC2` (configuration not stated), for which the values for the 50% effective dose (ED50) in test [1] and in test [2] were 19.3 µmol/kg and 20.1 µmol/kg, respectively.

With `COc1cc2c(O)nnc(-c3cccc([N+](=O)[O-])c3)c2cc1OC`, the ED50 in test [1] amounted to 75.5 µmol/kg; in test [2] it was 81.7 µmol/kg.

For the compound `COc1ccc2c(c1)CC(=O)NN=C2c1ccccc1`, the ED50 worked out at 64.8 µmol/kg in test [1] and 75.5 µmol/kg in test [2].

For the compound `COc1cc2c(cc1OC)C(c1ccc(N)cc1)=NN(C)C(=S)C2`, the ED50 was found to be 20.3 µmol/kg in test [1] and 29.8 µmol/kg in test [2].

Take `COc1cc2c(cc1OC)C(c1ccc([N+](=O)[O-])cc1)NCC2` (configuration not stated): the median effective dose (ED50) in test [1] came to 56.1 µmol/kg; in test [2] it was 100 µmol/kg.

In the case of `COc1cc2c(cc1OC)C(c1ccc(F)cc1)=NNC(=O)C2`, the ED50 was 57.2 µmol/kg in test [1] and 78 µmol/kg in test [2].

Take `COc1cc2c(cc1OC)C(c1ccccc1)=NN=C(S)C2`: the ED50 in test [1] was 15 µmol/kg; in test [2], 19.7 µmol/kg.

Consider `COc1cc2c(cc1OC)C(c1ccc(N)cc1)=Nn1c(O)nnc1C2`, for which the 50% effective dose (ED50) in test [1] amounted to 10.2 µmol/kg; in test [2], 16.1 µmol/kg.

For `COc1cc2c(cc1OC)C(c1cccc(N)c1)=NN(C)C(=O)C2`, the figures for the median effective dose (ED50) in test [1] and in test [2] were 30.6 µmol/kg and 36.8 µmol/kg, respectively.

For `CNC(=O)N1N=C(c2ccc(N)cc2)c2cc3c(cc2CC1=O)OCO3`, the ED50 in test [1] was 8.7 µmol/kg; in test [2], 12.4 µmol/kg.

With `COc1cc2c(cc1OC)C(c1cccc([N+](=O)[O-])c1)=Nn1c(O)nnc1C2`, the ED50 in test [1] was determined as 43.2 µmol/kg; in test [2] it was 56.4 µmol/kg.

Regarding `COc1cc2c(cc1OC)C(c1cccc([N+](=O)[O-])c1)NCC2` (configuration not stated), the 50% effective dose (ED50) in test [1] worked out at 7.19 µmol/kg; in test [2] it was 19.3 µmol/kg.

`CN1N=C(c2ccc(N)cc2)c2cc3c(cc2CC1=O)OCO3`: the ED50 stood at 29.5 µmol/kg in test [1] and 41.1 µmol/kg in test [2].
